Assay results reported in article PMC7291367, “Insightful Backbone Modifications Preventing Proteolytic Degradation of Neurotensin Analogs Improve NTS1-Induced Protective Hypothermia” (Frontiers in Chemistry, 2020).
“Also recorded” adds a separate entry of the source. Like-named read-outs stand apart in the source and are kept apart here. Numbered stars: 1 amine (or outer) side, 2 acyl side, 3 side chain; on linkers, the order of the positions; unused ones are H or OH. Square brackets hold non-standard residues; d marks the D form. Peptide text beside a SMILES is read from it. X1 = NCCCC[C@H](N)CN([C@@H](CCCCN)C(=O)[*:2])[*:1]; Ala(SiMe3) = C[Si](C)(C)C[C@H](N)C(=O)O; X2 = C[Si]1(C)CC(C(=O)[*:2])N([*:1])C1; Dmt = Cc1cc(O)cc(C)c1C[C@H](N)C(=O)O; Tle = CC(C)(C)[C@H](N)C(=O)O

Columns and labels:
Sprague-Dawley rats = assay: Body temperature measurement after intrathecal injection; assay type: in vivo; settings: rat; for effect on body temperature / temperature drop: 30 μg/kg i.t.; for effect on body temperature: compared to the saline-treated group; for Hypothermia ΔTemp: 30 μg/kg, i.t., change in body temperature from baseline at 60 min; for temperature drop: for up to 60 min
Text: The experimental procedures in this study were approved by the Animal Care Committee of the Université de Sherbrooke (protocol n°035-18B) and were in accordance with policies and directives of the Canadian Council on Animal Care. Adult male Sprague-Dawley rats, weighing 175–225 g (Charles River laboratories, St-Constant, Québec, Canada), were maintained on a 12-h light/dark cycle with free access to food and water and were housed two per cage on Aspen shavings in a quiet room.
Rats were lightly anesthetized with isoflurane/oxygen (Baxter corporation, Mississauga, ON, Canada; 2 L/min) flow and 25 μl of each compound were injected intrathecally with a 27-G 1/2 needle (BD PrecisionGlide, USA) into the subarachnoid space between vertebrae L5 and L6. Analogs 1–14 were diluted in physiological saline at 5 mg/ml, whereas compounds 15 and 16 were diluted in DMSO. For body temperature measurement, the injected solution of these both compounds contained 6% DMSO at final concentration (30 μg/kg).
Three consecutive days prior to testing, animals were individually acclimatized to manipulations and to a thermistor probe 5 min per day. The day of the test, experiments were always performed in a quiet room and between 8:00 and 12:00 PM. to reduce any variation related to the circadian rhythm. Body temperature was measured using a thermistor probe inserted into the rectum of adult Sprague-Dawley rats. Temperatures were recorded immediately before (baseline) and each 10 min for up to 60 min following intrathecal administration of saline, vehicle (6% DMSO) or NT analogs at 30 μg/kg. Changes in body temperature (Δ body temp) from baseline were determined for each animal. Data are expressed as mean ± SEM of 5 to 20 animals per condition.
Data are expressed as mean ± standard errors of the mean (SEM). All graphs and statistical analysis were performed using GraphPad Prism 8 (GraphPad software, La Jolla, CA, USA). A two-way ANOVA followed by Bonferroni's multiple comparisons test was used to determine significant differences between drug- and vehicle-treated rats at different timepoints post-injection.

[1] = Plasma stability assay (UPLC/MS); assay type: in vitro ADME; settings: 37°C; for half-life at 0.156 mM: rat; for Plasma stability (Half-life): rat plasma, 0.156 mM
Description: Rat plasma was obtained from blood by keeping the translucent phase after centrifugation at 15,000 g over 5 min. Plasma stability assay was carried out by incubating each compound at different incubation times in rat plasma at a final concentration of 0.156 mM. […] Then, 70 μl of a solution containing 10% trichloroacetic acid (TCA) and 0.5% nicotinamine, an internal standard, was added to stop the degradation by proteases. After centrifugation at 15,000 g for 30 min, supernatant was filtered through 0.22-μm filter and analyzed by UPLC/MS (Water H Class Acquity UPLC, mounted with Acquity UPLC BEH C18 column, 1.7 μm, 2.1 × 50 mm and paired to a SQ Detector 2). Compounds 1, 2, and 5 were analyzed using the mass or UV spectrum. Quantification was done by determining the area under the curve (AUC) ratio of each compound over AUC of nicotinamine for each incubation time. Data were plotted into GraphPad Prism 8 and the half-life of each compound was calculated using one-phase decay fit and represented the mean ± SEM of minimum three separate experiments.

hNTS2 [2] = molecular target: T1, hNTS2 (Homo sapiens, UniProt O95665); assay: Competitive radioligand binding assay, 125I-[Tyr3]-NT displacement, 1321N1 cell membranes; settings: for NTS1/NTS2 selectivity: ratio of Ki hNTS1 to Ki hNTS2; for fold decrease in NTS2 binding affinity: compared to NT(8-13)
T1 sequence (O95665 whole entry): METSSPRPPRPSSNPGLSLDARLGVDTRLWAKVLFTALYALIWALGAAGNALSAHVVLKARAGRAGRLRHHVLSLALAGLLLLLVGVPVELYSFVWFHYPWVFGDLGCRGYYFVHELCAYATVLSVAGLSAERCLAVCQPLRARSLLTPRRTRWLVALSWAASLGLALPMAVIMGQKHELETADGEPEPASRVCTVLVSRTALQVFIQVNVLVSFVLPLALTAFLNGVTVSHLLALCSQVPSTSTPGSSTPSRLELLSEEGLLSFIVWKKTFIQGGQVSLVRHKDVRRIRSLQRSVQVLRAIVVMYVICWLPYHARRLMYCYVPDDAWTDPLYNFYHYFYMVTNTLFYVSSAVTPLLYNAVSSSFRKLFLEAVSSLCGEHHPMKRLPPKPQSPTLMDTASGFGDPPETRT
Description: (§1) All media and additives are from Wisent (St-Bruno, QC). […] After 1 h of incubation at room temperature, the binding reaction mixture was transferred in polyethylenimine-coated 96-well-filter plates (Millipore, Billerica, MA). Reaction was terminated by filtration, and plates were washed three times with 200 μl of ice-cold binding buffer. […] Data were plotted using GraphPad Prism 8 using the One-site—Fit log (IC50) and represent the mean ± SEM of at least three separate experiments performed in triplicate.

hNTS1 [3] = molecular target: T2, hNTS1 (Homo sapiens, UniProt P30989); assay: Competitive radioligand binding assay, 125I-[Tyr3]-NT displacement, CHO-K1 cell membranes; settings: for fold decrease in NTS1 binding affinity: compared to NT(8-13)
T2 sequence (P30989 whole entry): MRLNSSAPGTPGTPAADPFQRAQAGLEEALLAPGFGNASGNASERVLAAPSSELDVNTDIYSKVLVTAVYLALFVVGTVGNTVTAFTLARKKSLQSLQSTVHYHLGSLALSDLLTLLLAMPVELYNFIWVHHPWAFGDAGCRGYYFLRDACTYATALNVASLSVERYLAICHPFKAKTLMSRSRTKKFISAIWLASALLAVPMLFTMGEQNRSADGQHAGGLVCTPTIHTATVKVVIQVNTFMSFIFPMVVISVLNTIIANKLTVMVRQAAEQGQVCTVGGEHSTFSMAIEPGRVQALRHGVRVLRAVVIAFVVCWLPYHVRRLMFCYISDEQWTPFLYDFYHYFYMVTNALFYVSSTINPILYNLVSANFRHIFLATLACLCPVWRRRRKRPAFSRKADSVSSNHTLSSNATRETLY
Description: as §1

hNTS2 [4] = molecular target: T1, hNTS2; settings: Ki values taken from the literature (Figure 1 legend) ref Fanelli et al., 2015; Eiselt et al., 2019; read-out: Binding, Ki hNTS2; cited from earlier work
hNTS1 [5] = molecular target: T2, hNTS1; settings: Ki values taken from the literature (Figure 1 legend) ref Fanelli et al., 2015; Eiselt et al., 2019; read-out: Binding, Ki hNTS1; cited from earlier work
[6] = mean ± SEM, at least three experiments, Cheng-Prusoff from IC50, read-out: Binding, Ki hNTS2

Compound | effect on body temperature (Sprague-Dawley rats) | Hypothermia ΔTemp (Sprague-Dawley rats) | Ki (hNTS2 [2]) | Ki (hNTS1 [3]) | NTS1/NTS2 selectivity (hNTS2 [2]) | half-life at 0.156 mM ([1]; plasma, incubation up to 24 h) | also measured
CC[C@H](C)[C@H](NC(=O)[C@H](Cc1ccc(O)cc1)NC(=O)[C@@H]1CCCN1C(=O)[C@H](CCCCN)NC(=O)[C@@H](N)CCCCN)C(=O)N[C@@H](CC(C)C)C(=O)O [Compound 1, H-Lys-Lys-Pro-Tyr-Ile-Leu-OH] | not effective in reducing the body temperature; also recorded: not effective to induce drop in body temperature | 0.27 ±0.2 °C | 1.1 ± 0.2 nM |  |  |  | half-life at 0.156 mM ([1]; short incubation times): 0.0267 ± 0.005 h
CC[C@H](C)[C@H](NC(=O)[C@H](Cc1ccc(O)cc1)NC(=O)[C@@H]1CCCN1C(=O)[C@H](CCCCN)NC[C@@H](N)CCCCN)C(=O)N[C@@H](CC(C)C)C(=O)O [Compound 2, H-LysΨ[CH2NH]Lys-Pro-Tyr-Ile-Leu-OH] (H-[X1]PYIL-OH) |  |  |  | 2 ± 0.8 nM | 6 |  | Plasma stability (Half-life) ([1]; short incubation times): 0.14 ± 0.0333 h; half-life at 0.156 mM ([1]; plasma, short incubation times): < 0.167 h; Ki (hNTS2 [2]; [6]): 0.31 ± 0.08 nM
CC[C@H](C)[C@H](NC(=O)[C@H](Cc1ccc(O)cc1)NC(=O)[C@@H]1CCCN1C(=O)[C@H](CCCCN)NC[C@@H](N)CCCCN)C(=O)N[C@@H](C[Si](C)(C)C)C(=O)O [Compound 4, H-Lysψ[CH2NH]Lys-Pro-Tyr-Ile-TMSAla-OH] (H-[X1]PYI[Ala(SiMe3)]-OH) | long-lasting hypothermia | −2.0 ± 0.10 °C | 0.55 ± 0.1 nM | 2.5 ± 0.2 nM | 4.5 | 2 ± 0.2 h | temperature drop (Sprague-Dawley rats): more than 2 °C; fold decrease (loss) of affinity at NTS1 (hNTS1 [3]; compared to 3): 140 fold
CC[C@H](C)[C@H](NC(=O)[C@H](Cc1ccc(O)cc1)NC(=O)C1C[Si](C)(C)CN1C(=O)[C@H](CCCCN)NC(=O)[C@@H](N)CCCCN)C(=O)N[C@@H](CC(C)C)C(=O)O (stereo partly drawn) [Compound 5, H-Lys-Lys-Sip-Tyr-Ile-Leu-OH] (H-KK[X2]YIL-OH) | not effective in reducing the body temperature; also recorded: not effective to induce drop in body temperature | −0.07 ± 0.2 °C |  |  |  |  | 
CC[C@H](C)[C@H](NC(=O)[C@H](Cc1ccc(O)cc1)NC(=O)C1C[Si](C)(C)CN1C(=O)[C@H](CCCCN)NC[C@@H](N)CCCCN)C(=O)N[C@@H](CC(C)C)C(=O)O (stereo partly drawn) [Compound 6, H-Lysψ[CH2NH]Lys-Sip-Tyr-Ile-Leu-OH] | slight decrease in core body temperature; also recorded: hypothermic response | −2.2 ± 0.3 °C | 130 ± 30 nM | 300 ± 50 nM | 2.3 | 22 ± 2 h | fold decrease in NTS1 binding affinity (hNTS1 [3]): 200 fold; fold decrease in NTS2 binding affinity (hNTS2 [2]): ~50 fold
CC[C@H](C)[C@H](NC(=O)[C@H](Cc1ccc(O)cc1)NC(=O)C1C[Si](C)(C)CN1C(=O)[C@H](CCCCN)NC(=O)[C@@H](N)CCCCN)C(=O)N[C@@H](C[Si](C)(C)C)C(=O)O (stereo partly drawn) [Compound 7, H-Lys-Lys-Sip-Tyr-Ile-TMSAla-OH] (H-KK[X2]YI[Ala(SiMe3)]-OH) | not effective in reducing the body temperature; also recorded: not effective to induce drop in body temperature | −0.30 ± 0.6 °C | 16 ± 4 nM | 55 ± 5 nM | 3.4 |  | fold decrease in NTS1 binding affinity (hNTS1 [3]): 35 fold; fold decrease in NTS2 binding affinity (hNTS2 [2]): 6 fold
CC[C@H](C)[C@H](NC(=O)[C@H](Cc1ccc(O)cc1)NC(=O)C1C[Si](C)(C)CN1C(=O)[C@H](CCCCN)NC[C@@H](N)CCCCN)C(=O)N[C@@H](C[Si](C)(C)C)C(=O)O (stereo partly drawn) [Compound 8, H-LysΨ[CH2NH]Lys-Sip-Tyr-Ile-TMSAla-OH] |  |  |  |  |  | > 20 h | 
CC[C@H](C)[C@H](NC(=O)[C@H](CCCCN)NC(=O)[C@@H]1CCCN1C(=O)[C@H](CCCCN)NC[C@@H](N)CCCCN)C(=O)N[C@@H](CC(C)C)C(=O)O [Compound 10, H-LysΨ[CH2NH]Lys-Pro-Lys-Ile-Leu-OH] (H-[X1]PKIL-OH) |  |  |  |  |  | 5 ± 0.2 h | 
CC[C@H](C)[C@H](NC(=O)[C@H](CCCCN)NC(=O)[C@@H]1CCCN1C(=O)[C@H](CCCCN)NC(=O)[C@@H](N)CCCCN)C(=O)N[C@@H](C[Si](C)(C)C)C(=O)O [Compound 11, H-Lys-Lys-Pro-Lys-Ile-TMSAla-OH] (H-KKPKI[Ala(SiMe3)]-OH) | did not induce hypothermia; also recorded: did not cause drop in body temperature | 0.04 ± 0.2 °C | 76 ± 20 nM | 710 ± 100 nM | 9.3 |  | fold increase in affinity toward NTS1 (hNTS1 [3]; compared to 9): 10 fold; fold increase in affinity toward NTS2 (hNTS2 [2]; compared to 9): 4 fold
CC[C@H](C)[C@H](NC(=O)[C@@H](Cc1c[nH]c2ccccc12)NC(=O)[C@@H]1CCCN1C(=O)[C@H](CCCCN)NC(=O)[C@@H](N)CCCCN)C(=O)N[C@@H](C[Si](C)(C)C)C(=O)O [Compound 13, H-Lys-Lys-Pro-D-Trp-Ile-TMSAla-OH] (H-KKP[dW]I[Ala(SiMe3)]-OH) |  |  | 8.5 ± 2 nM |  | 423 |  | Plasma stability (Half-life) ([1]; short incubation times): 0.167 ± 0.033 h; half-life at 0.156 mM ([1]; plasma, short incubation times): < 0.167 h; selectivity toward NTS2 (hNTS2 [2]; NTS2 over NTS1, text): > 420 fold
CC[C@H](C)[C@H](NC(=O)[C@@H](Cc1c[nH]c2ccccc12)NC(=O)[C@@H]1CCCN1C(=O)[C@H](CCCCN)NC[C@@H](N)CCCCN)C(=O)N[C@@H](C[Si](C)(C)C)C(=O)O [Compound 14, H-Lysψ[CH2NH]Lys-Pro-D-Trp-Ile-TMSAla-OH] (H-[X1]P[dW]I[Ala(SiMe3)]-OH) | long-lasting hypothermia | −1.8 ± 0.2 °C | 3.5 ± 0.6 nM | 55 ± 3 nM | 16 | > 20 h | temperature drop (Sprague-Dawley rats): more than 2 °C; fold increase in binding to NTS1 (hNTS1 [3]; compared to 13 (addition of reduced amine bond)): 65 fold
Cc1cc(O)cc(C)c1C[C@H](NC(=O)[C@@H]1CCCN1C(=O)[C@H](CCCCN)NC(=O)[C@@H](N)CCCCN)C(=O)N[C@H](C(=O)N[C@@H](CC(C)C)C(=O)O)C(C)(C)C [Compound 15, H-Lys-Lys-Pro-Dmt-Tle-Leu-OH] (H-KKP[Dmt][Tle]L-OH) | not effective in reducing the body temperature; also recorded: not effective to induce drop in body temperature | 0.14 ± 0.2 °C |  |  | 24 |  | Ki (hNTS2 [4]): 2.4 ± 1 nM; Ki (hNTS1 [5]): 57 ± 6 nM
CC[C@H](C)[C@H](NC(=O)[C@H](Cc1ccc(O)cc1)NC(=O)[C@@H]1CCCN1C(=O)[C@H](CCCNC(=N)N)NC(=O)[C@@H](N)CCCNC(=N)N)C(=O)N[C@@H](CC(C)C)C(=O)O [NT(8-13), H-Arg-Arg-Pro-Tyr-Ile-Leu-OH, reference compound] |  |  |  |  |  |  | half-life at 0.156 mM ([1]; short incubation times): 0.0167 ± 0.00167 h
H-KKPKIL-OH [Compound 9, H-Lys-Lys-Pro-Lys-Ile-Leu-OH] | did not induce hypothermia; also recorded: did not cause drop in body temperature | 0.32 ± 0.2 °C |  |  | 25 |  | fold decrease in NTS1 binding affinity (hNTS1 [3]): more than 5,000 fold; fold decrease in NTS2 binding affinity (hNTS2 [2]): > 110 fold; Ki (hNTS2 [2]; [6]): 310 ± 100 nM
